Assay results as given in patent US5439944A, “Red blood cell substitute emulsions containing alkyl- or alkylglyucerophosphoryl choline surfactants and methods of use” (priority 1993, dated 1995).

Columns and labels:
rat whole blood = test: Hemolysis screening of surfactants; type: cell-based; settings: 5% surfactant in 0.9% saline admixed 1:1 with rat whole blood; visually distinct red hue of supernate
Procedure: Surfactant Examples 1a-1k according to general Structure I above, and 2a of Structure II above, were prepared following the above procedures.
(§1) Surfactants were screened initially by preparing 5% solutions/dispersions of the surfactant in 0.9% saline and admixing 1:1 with rat whole blood. Centrifugation (6 minutes) at 2400 rpm afforded packed cells and a supernate. […] The discoloration of the supernate was not quantified colorimetrically.

Sprague Dawley rats = test: Preliminary acute toxicity screen; type: in vivo; settings: 5% sonicated dispersion in 0.9% saline, two Sprague Dawley rats, 14 days
[1] = Solubility/dispersion of surfactant in 0.9% saline; type: physicochemical; settings: 5% solution/dispersion in 0.9% saline
Procedure: as §1

[2] = Organ distribution 14 days after infusion (Table V); type: in vivo, rats; settings: for Kidney / Liver / Lung / Spleen / Survival / Hct: 14 days after infusion of 40 cc/Kg; for Hct: hematocrit
Procedure: The impact of the emulsions of Table IV on organ distribution of PFC was then determined by sacrificing the test animals 14 days after infusion.

[3] = Perfluorochemical circulatory blood residence time (fluorocrit); type: in vivo, rats; settings: perfluorochemical remaining at 48 hours
Procedure: The emulsions of Tables II and III were studied in a randomized, ten animal per emulsion experiment in which each animal was infused with 20 cc/Kg of emulsion and sacrificed at 48 hours to determine the circulatory perfluorochemical or perfluorocarbon content called "fluorocrit" and abbreviated "Fct". The Fct represents that percentage of the blood that is perfluorocarbon in v/v %.
After 48 hrs., the animals were anesthetized, the chest cavity was opened, and a blood sample (1-2ml) was withdrawn from the still beating heart. Three to 4 drops of the sample were added to each of three previously tared 4 ml vials containing 10%KOH/EtOH (1.0 ml). The vials were weighed to determine the amount of blood added, then reweighed after an internal standard mixture of 1% octane in CFCl3 (1.5-2.0ml) was added. H2 O was added to the vial until full, then the vial was placed on a rotary shaker at 240 rpm for 20 minutes. The lower layer was withdrawn, and passed through a glass wool plugged pasteur pipette containing silica gel (0.3-0.4g). […] The program parameters specified a hold period at 40° C. for 4 minutes, followed by a 10° C./minute temperature rise until 140° was attained.

[4] = Emulsion mean particle size and stability after 4 days in serum albumin/Lactated Ringer's at 37° C.; type: physicochemical
Description: The surfactants of Table I were used to make 40 volume % (v/v) perfluorochemical emulsions. In the above described European Pat. Appln. […] Therefore, those perfluorochemical emulsions were used as a control for comparison with the perfluorochemical emulsions of this invention.
For comparison with the data of Table II, the study was repeated with a constant loading of 2 w/v % surfactant, and 2 w/v % safflower oil adjuvant for the control and surfactants of this invention.

[5] = Organ distribution, additional separate study (Table VI); type: in vivo, rats
[6] = Organ distribution, additional separate study (Table VII); type: in vivo, rats
Blood hematology = type: in vivo, rats; settings: Table VIII, accredited outside laboratories
Description: The effects on the liver and lung were not as pronounced in Table VI as in Table V. However, with respect to Table VII, it is believed that the smaller values obtained for the liver and spleen are also real.

[7] = K. Yokoyama et al; cited from earlier work

| SMILES | Hemolytic (rat whole blood) | Survival at 40 cc/Kg of 5% solution (Sprague Dawley rats) | Kidney [2] [g/100 g] | Liver [2] [g/100 g] | Lung [2] [g/100 g] | Spleen [2] [g/100 g] | Survival [2] | Hct [2] [v/v %] | further results |
| --- | --- | --- | --- | --- | --- | --- | --- | --- | --- |
| CCCCCCCCOCC(COP(=O)([O-])OCC[N+](C)(C)C)OCCCCCCCC (stereo not shown) [Cpd 1a, 1,2-dioctylglycero-3-phosphoryl choline] | hemolytic and Yes | – | – | – | – | – | – | – | – |
| CCCCCCCCCCCCCCOCC(COP(=O)([O-])OCC[N+](C)(C)C)OCCCCCCCCCCCCCC (stereo not shown) [Cpd 1b, 1,2-ditetradecylglycero-3-phosphoryl choline] | hemolytic and Yes | – | – | – | – | – | – | – | – |
| CCCCCCCCCCCCCCCCOCC(COP(=O)([O-])OCC[N+](C)(C)C)OCCCCCCCCCCCCCCCC (stereo not shown) [Cpd 1c, 1,2-dihexadecylglycero-3-phosphoryl choline] | No | 2/2 | – | – | – | – | – | – | – |
| CCCCCCCCCCCCCCCCCCOCC(COP(=O)([O-])OCC[N+](C)(C)C)OCCCCCCCCCCCCCCCCCC (stereo not shown) [Cpd 1d, 1,2-di-octadecylglycero-3-phosphoryl choline] | No | – | – | – | – | – | – | – | Solubility (entry in survival column) [1]: insoluble cpd |
| CCCCCCCCCCCCCCCCOCC(COP(=O)([O-])OCC[N+](C)(C)C)OCCCCCCCCCCCCCC (stereo not shown) [Cpd 1e, 1-hexadecyl-2-tetradecylglycero-3-phosphoryl choline] | No | 0/2 | 1.06 | 7.97 | 0.57 | 1.55 | 9/10 | 35.8 | – |
| CCCCCCCCCCCCCCCCCCOCC(COP(=O)([O-])OCC[N+](C)(C)C)OCCCCCCCCCCCCCC (stereo not shown) [Cpd 1f, 1-octadecyl-2-tetradecylglycero-3-phosphoryl choline] | No | 2/2 | – | – | – | – | – | – | circulatory blood residence / stability in the circulatory blood system (in words) [3]: increased stabilities in the circulatory blood system |
| CCCCCCCCCCCCCCCCCCOC(COCCCCCCCCCCCCCC)COP(=O)([O-])OCC[N+](C)(C)C (stereo not shown) [Cpd 1g, 1-tetradecyl-2-octadecylglycero-3-phosphoryl choline] | No | 0/2 | 0.94 | 7.52 | 0.55 | 1.49 | 6/10 | 39.0 | – |
| CCCCCCCCCCCCCCCCCCOC(COCCCCCCCCCCCCCCCC)COP(=O)([O-])OCC[N+](C)(C)C (stereo not shown) [Cpd 1h, 1-hexadecyl-2-octadecylglycero-3-phosphoryl choline] | No | 0/2 | – | – | – | – | – | – | – |
| CCCCCCCC/C=C\CCCCCCCCOCC(COP(=O)([O-])OCC[N+](C)(C)C)OCCCCCCCC/C=C\CCCCCCCC (stereo not shown) [Cpd 1i, 1,2-Dioleylglycerophosphoryl choline] | No | 2/2 | 0.96 | 7.47 | 0.64 | 2.56 | 8/10 | 34.7 | Mean Particle Size ([4]; Table II, 1.8 w/v % Cpd., 2.0 w/v % oil, 40 v/v % PFC emulsion, sterilized 15 min 121° C.): 304 nM; 4 days Serum ([4]; Table II, 1.8 w/v % Cpd., 2.0 w/v % oil, particle size after 4 days at 37° C. in serum albumin/Lactated Ringer's): 258 nM; Mean Particle Size ([4]; Table III, 2 w/v % surfactant, 2 w/v % safflower oil): 323 nM; 4 days Serum ([4]; Table III, 2 w/v % surfactant, 2 w/v % safflower oil, 4 days at 37° C. in serum albumin/Lactated Ringer's): 301 nM |
| CCCCCCCCCCCCCCCCCCOCC(COP(=O)([O-])OCC[N+](C)(C)C)OCCCCCCCCCCCCCCCC (stereo not shown) [Cpd 1j, 1-octadecyl-2-hexadecylglycero-3-phosphoryl choline] | – | – | 0.89 | 6.64 | 0.57 | 1.66 | 9/10 | 44.4 | Kidney [5]: 0.97 g/100 g; Liver [5]: 7.44 g/100 g; Lung [5]: 0.98 g/100 g; Spleen [5]: 1.70 g/100 g; Survival [5]: 10/10; Hct ([5]; hematocrit): 36.1 v/v %; drop in hematocrit after infusion (in words) ([2]; vs control): so striking; Kidney [6]: 0.901 g/100 g; Liver [6]: 7.39 g/100 g; Lung [6]: 0.828 g/100 g; Spleen [6]: 1.46 g/100 g; Survival [6]: 10/10; Hct ([6]; hematocrit): 37.7 v/v %; circulatory blood residence / stability in the circulatory blood system (in words) [3]: increased stabilities in the circulatory blood system; Platelets (Blood hematology): 1024222; RBC (Blood hematology): 5.42; Reticulocytes (Blood hematology): 313281; Hemoglobin (Blood hematology; in g/dL (unit assumed)): 11.04 |
| CCCCCCCCCCCCCCCCOC(COCCCCCCCCCCCCCC)COP(=O)([O-])OCC[N+](C)(C)C (stereo not shown) [Cpd 1k, 1-tetradecyl-2-hexadecylglycero-3-phosphoryl choline] | – | – | 1.22 | 7.76 | 0.64 | 2.09 | 9/10 | 36.5 | – |
| FC(F)(F)C(F)(F)C(F)(F)N(C(F)(F)C(F)(F)C(F)(F)F)C(F)(F)C(F)(F)C(F)(F)F [perfluorotripropylamine] | – | – | – | – | – | – | – | – | half life in the liver and other body tissues (in words) [7]: longer than desirable |
